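Grown in 96-well plates, cells were treated for 48 hours with each compound at five concentrations. Insufficient inhibition: endpoint recorded as highest concentration tested. Definition used: TGI = concentration required for complete inhibition of growth.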
Tests used:
Test in all cases: NCI anticancer screen, dose series, 48 h
HCT-15 colon = system: HCT-15 colon
A549 NSCLC = system: A549 NSCLC
HT29 colon = system: HT29 colon
NCI-H226 lung = system: NCI-H226 lung
SR leukemia = system: SR leukemia
786-0 renal = system: 786-0 renal
NCI-H522 lung = system: NCI-H522 lung
CAKI-1 renal = system: CAKI-1 renal
SK-OV-3 ovarian = system: SK-OV-3 ovarian
HOP-62 NSCLC = system: HOP-62 NSCLC
M14 melanoma = system: M14 melanoma
U251 CNS = system: U251 CNS
SNB-75 CNS = system: SNB-75 CNS
EKVX NSCLC = system: EKVX NSCLC
HOP-92 NSCLC = system: HOP-92 NSCLC
ACHN renal = system: ACHN renal
M19-MEL melanoma = system: M19-MEL melanoma
SN12C renal = system: SN12C renal
OVCAR-3 ovarian = system: OVCAR-3 ovarian
DMS 273 small cell lung = system: DMS 273 small cell lung
IGROV1 ovarian = system: IGROV1 ovarian
SNB-78 CNS = system: SNB-78 CNS
HL-60(TB) leukemia = system: HL-60(TB) leukemia
MALME-3M melanoma = system: MALME-3M melanoma
HCT-116 colon = system: HCT-116 colon
KM20L2 colon = system: KM20L2 colon
UACC-257 melanoma = system: UACC-257 melanoma
OVCAR-5 ovarian = system: OVCAR-5 ovarian
SK-MEL-5 melanoma = system: SK-MEL-5 melanoma
COLO 205 colon = system: COLO 205 colon
UO-31 renal = system: UO-31 renal
NCI-H460 lung = system: NCI-H460 lung
SF-268 CNS = system: SF-268 CNS
HOP-18 NSCLC = system: HOP-18 NSCLC
RPMI-8226 leukemia = system: RPMI-8226 leukemia
A498 renal = system: A498 renal
SNB-19 CNS = system: SNB-19 CNS
RXF-631 renal = system: RXF-631 renal
KM12 colon = system: KM12 colon
OVCAR-8 ovarian = system: OVCAR-8 ovarian
LOX IMVI melanoma = system: LOX IMVI melanoma
LXFL 529 NSCLC = system: LXFL 529 NSCLC
SK-MEL-2 melanoma = system: SK-MEL-2 melanoma
UACC-62 melanoma = system: UACC-62 melanoma
RXF 393 renal = system: RXF 393 renal
SW-620 colon = system: SW-620 colon
SF-539 CNS = system: SF-539 CNS
TK-10 renal = system: TK-10 renal
SK-MEL-28 melanoma = system: SK-MEL-28 melanoma
MOLT-4 leukemia = system: MOLT-4 leukemia
HCC-2998 colon = system: HCC-2998 colon
SF-295 CNS = system: SF-295 CNS
CCRF-CEM leukemia = system: CCRF-CEM leukemia
OVCAR-4 ovarian = system: OVCAR-4 ovarian
K-562 leukemia = system: K-562 leukemia
NCI-H23 lung = system: NCI-H23 lung

Measured: TGI

Cc1cc2c(cc1C)[n+](=O)c(C(=O)CC(=O)C(=O)Nc1ccccc1C)c(C)n2[O-]
> 100 µM: all assays above

Reference: PubChem BioAssay (NCI)
